{"source": "ChEMBL document CHEMBL3875162", "about": "“Synthesis and biological evaluation of new benzimidazole-thiazolidinedione hybrids as potential cytotoxic and apoptosis inducing agents” (Eur J Med Chem, 2016)", "key": {"[1]": {"test": "Cell cycle arrest in human A549 cells assessed as accumulation at G0/G1 phase at 10 uM after 24 hrs by propidium iodide staining-based flow cytometry (reference value: 66.6%)", "assay_type": "functional"}, "[2]": {"system": "A549", "test": "Induction of apoptosis in human A549 cells assessed as early apoptotic cells at 15 uM after 24 hrs by Annexin V-FITC/propidium iodide staining based flow cytometry (reference value: 2.6%)", "assay_type": "functional"}, "[3]": {"system": "A549", "test": "Induction of apoptosis in human A549 cells assessed as late apoptotic cells at 10 uM after 24 hrs by Annexin V-FITC/propidium iodide staining based flow cytometry (reference value: 0.8%)", "assay_type": "functional"}, "[4]": {"test": "Cell cycle arrest in human A549 cells assessed as accumulation at G2/M phase at 15 uM after 24 hrs by propidium iodide staining-based flow cytometry (reference value: 23.3%)", "assay_type": "functional"}, "[5]": {"test": "Cell cycle arrest in human A549 cells assessed as accumulation at S phase at 5 uM after 24 hrs by propidium iodide staining-based flow cytometry (reference value: 11.5%)", "assay_type": "functional"}, "[6]": {"system": "A549", "test": "Induction of apoptosis in human A549 cells assessed as viable cells at 10 uM after 24 hrs by Annexin V-FITC/propidium iodide staining based flow cytometry (reference value: 94%)", "assay_type": "functional", "conditions": "A549, 24 h, read-out: Activity"}, "[7]": {"test": "Cytotoxicity against human MCF10A cells assessed as cell growth inhibition after 48 hrs by MTT assay", "assay_type": "toxicity, cell-based, MCF-10A"}, "[8]": {"test": "Cell cycle arrest in human A549 cells assessed as accumulation at S phase at 15 uM after 24 hrs by propidium iodide staining-based flow cytometry (reference value: 11.5%)", "assay_type": "functional"}, "[9]": {"system": "A549", "test": "Induction of apoptosis in human A549 cells assessed as nucleus fragmentation at 5 to 15 uM after 24 hrs by DAPI staining based fluorescence microscopic method", "assay_type": "functional, cell-based"}, "[10]": {"system": "A549", "test": "Induction of apoptosis in human A549 cells assessed as pyknosis at 5 to 15 uM after 24 hrs by DAPI staining based fluorescence microscopic method", "assay_type": "functional, cell-based"}, "[11]": {"test": "Cell cycle arrest in human A549 cells assessed as accumulation at G0/G1 phase at 15 uM after 24 hrs by propidium iodide staining-based flow cytometry (reference value: 66.6%)", "assay_type": "functional"}, "[12]": {"system": "A549", "test": "Induction of apoptosis in human A549 cells assessed as nuclear condensation at 5 to 15 uM after 24 hrs by DAPI staining based fluorescence microscopic method", "assay_type": "functional, cell-based"}}, "note": "Calls of active or inactive are those of the source. The rule behind the calls is not given here."}
{"smiles": "Cn1c(/C=C2\\SC(=O)N(CC(=O)Nc3nc(-c4ccccc4)cs3)C2=O)nc2ccccc21", "values": [{"measurement": "Activity", "setting": "[1]", "value": 44.8, "unit": "%"}, {"measurement": "Activity", "setting": "[2]", "value": 19.4, "unit": "%"}, {"measurement": "Activity", "setting": "[3]", "value": 7.9, "unit": "%"}, {"measurement": "Activity", "setting": "[4]", "value": 57.8, "unit": "%"}, {"measurement": "Activity", "setting": "[5]", "value": 11.4, "unit": "%"}, {"measurement": "viability at 10 µM", "setting": "[6]", "value": 73.3, "unit": "%"}, {"measurement": "IC50 at 48 h", "setting": "[7]", "value": "> 100", "unit": "µM"}, {"measurement": "Activity", "setting": "[8]", "value": 13.5, "unit": "%"}, {"measurement": "Activity", "setting": "[9]", "value": "Active"}, {"measurement": "Activity", "setting": "[10]", "value": "Active"}, {"measurement": "Activity", "setting": "[11]", "value": 30.5, "unit": "%"}, {"measurement": "Activity", "setting": "[12]", "value": "Active"}]}
